Results taken from patent US20190322676A1, “CERAMIDE GALACTOSYLTRANSFERASE INHIBITORS FOR THE TREATMENT OF DISEASE” (BioMarin Pharmaceutical Inc., priority 2016, published 2019).
pIC50: −log10 of the molar value. Where a name gives a salt, the structure may show the parent alone.

Each molecule was assayed against T1, human CGT (ceramide galactosyltransferase), CHO/CGT lysate (Homo sapiens, UniProt Q16880) (assay: CGT enzyme assay, RapidFire/MS/MS readout (Table 1 ranges with one asterisk *)). Settings: RapidFire method (range with one asterisk *).
T1 construct: Full-length human CGT cDNA was cloned into the BamH1/Xho1 site of pcDNA3.1 (+); expressed in transfected cells; host or cells: Chinese hamster ovary (CHO) cells; lysate prepared with M-PER
T1 sequence (Q16880 21-541): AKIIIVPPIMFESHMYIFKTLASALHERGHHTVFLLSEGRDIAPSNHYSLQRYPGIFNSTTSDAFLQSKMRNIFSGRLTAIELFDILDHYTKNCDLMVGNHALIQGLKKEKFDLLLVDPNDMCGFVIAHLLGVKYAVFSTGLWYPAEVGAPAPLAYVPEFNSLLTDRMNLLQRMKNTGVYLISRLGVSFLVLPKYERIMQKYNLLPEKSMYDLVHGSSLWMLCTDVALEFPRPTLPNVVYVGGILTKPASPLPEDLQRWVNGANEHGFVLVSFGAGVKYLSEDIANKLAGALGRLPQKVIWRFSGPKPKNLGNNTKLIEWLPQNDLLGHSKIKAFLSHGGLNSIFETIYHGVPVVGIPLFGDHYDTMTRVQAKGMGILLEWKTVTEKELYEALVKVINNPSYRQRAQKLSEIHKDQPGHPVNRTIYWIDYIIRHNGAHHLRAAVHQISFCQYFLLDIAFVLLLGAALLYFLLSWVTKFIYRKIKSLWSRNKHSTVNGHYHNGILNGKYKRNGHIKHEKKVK
Format: biochemical
Description: Full-length human CGT cDNA was cloned into the BamH1/Xho1 site of pcDNA3.1 (+) mammalian expression vector (V90-20, Invitrogen, Carlsbad, Calif.) and the plasmid was transfected into Chinese hamster ovary (CHO) cells. Lysate was prepared using M-PER (Mammalian Protein Extraction Reagent, ThermoFisher Scientific, Grand Island, N.Y.) in the presence of a protease inhibitor cocktail (P8340, Sigma, Saint Louis, Mo.). Each 100 mm dish (100% confluent, approximately 1×10^7 cells) was lysed with 250 μL of M-PER containing protease inhibitors. Protein concentration was determined using a Pierce BCA protein assay kit (ThermoFisher Scientific). Four micrograms of CHO/CGT lysate was incubated with various concentrations of a compound (0.001 μM-50 μM) in 10 mM HEPES (pH 7.2) containing 35 μM dioleoylphosphatidylcholine, 5 mM MgCl2, 5 mM MnCl2, 1% BSA, 15 mM KCl, 1 mM EGTA, 8 mM CHAPS, 10 μM C6-NBD-dihydro-ceramide and 17.5 μM UDP-galactose in a final reaction volume of 20 μL at 37° C. for 1 hour. The final concentration of DMSO was 0.5% in both compound-treated and mock-treated samples. Tween 80 (0.01%) was optionally added to the reaction mixture to help solubilize the compounds. Each individual reaction was diluted with 80 μL of methanol:acetronitrile (1:3) containing 5 μM N-docdecanoyl-NBD-galactosylceramide (internal standard) to stop the reaction. 200 μL H2O:acetonitile (1:1) was added to precipitate the protein. After sufficient mixing, the plates were centrifuged at 2469 g for 38 minutes, 200 μL of supernatant was transferred to a LC/MS 96-deep well plate and a second spin was performed at 2469 g for 10 minutes. The final supernatant was injected in triplicate for RapidFire/MS/MS analysis.
Quantitative Analysis Using the RapidFire/MS/MS Method:
The quantitative analysis of C6-NBD-dihydro-ceramide and C6-NBD-dihydro-galactosylceramide was performed on a Rapid Fire 360 high-throughput mass spectrometry system (Agilent Technologies, Palo Alto, Calif.) coupled with a API4000^+ triple quadrupole mass spectrometer (Applied Biosystems, Concord, Ontario, Canada). RapidFire software packages, including RapidFire Control panel, RapidFire UI and RapidFire Integrator (Agilent Technologies), were used to control the RapidFire instrument and to process data. Analyst 1.6.2 software packages (Applied Biosystems) were used to control the MS system and acquire MS data. […] of sample was loaded on a micro-scale C4 solid-phase extraction (SPE) cartridge (Agilent Technologies) and salts were removed using water supplemented with 0.1% formic acid at the flow rate of 1.5 mL/min for 3 sec. C6-NBD-dihydro-ceramide and C6-NBD-dihydro-galactosylceramide were co-eluted into the mass spectrometer using acetonitrile containing 0.1% formic acid at the flow rate of 1.0 mL/min for 3 sec. The total cycle time of one injection was 8 secs. The MS/MS detection was performed in ESI negative mode. The mass transition of C6-NBD-dihydro-galactosylceramide was m/z 752.6→678.6 using a −40 V collision energy, the mass transition of C6-NBD-dihydro-ceramide was m/z 590.6→115.8 using a −40 V collision energy and the mass transition of N-docdecanoyl-NBD-galactosylceramide was m/z 820.9→746.3 using a −45 V collision energy.
The C6-NBD-dihydro-galactosylceramide reading was normalized first by dividing the peak area of C6-NBD-dihydro-galactosylceramide by the peak area of the internal standard, N-docdecanoyl-NBD-galactosylceramide. IC50 values (see Table 1, where data ranges with one asterix (*) correspond to analysis using the RapidFire/MS/MS method, and data ranges with two asterixes (**) correspond to analysis using the RapidFire/MS/MS method with 0.01% Tween added) were generated from sigmoidal dose-response curves (variable slope) with GraphPad Prism software (GraphPad Software, Inc., San Diego, Calif.) using the normalized peak areas of C6-NBD-dihydro-galactosylceramide or the percent inhibition of C6-NBD-dihydro-galactosylceramide accumulation relative to DMSO control. […]

Row | SMILES | pIC50
1 | NCC1CCN(C(=O)[C@H](NS(=O)(=O)c2ccc3cc(OC4CCCC4)ccc3c2)C(F)(F)c2ccc(-c3ccc(Cl)cc3)cc2)CC1 [Compound 138-2, (S)—N-(3-(4-(aminomethyl)piperidin-1-yl)-1-(4′-chloro-[1,1′-biphenyl]-4-yl)-1,1-difluoro-3-oxopropan-2-yl)-6-(cyclopentyloxy)naphthalene-2-sulfonamide trifluoroacetate] | 5.00 to 6.00
2 | NC1CC2CCC(C1)N2C(=O)[C@@H](NS(=O)(=O)c1ccc(OCC2CCCCC2)cc1)C(F)(F)c1ccc2cc(Br)ccc2c1 (stereo partly drawn) [Compound 40-1, N-((2R)-3-(3-amino-8-azabicyclo[3.2.1]octan-8-yl)-1-(6-bromonaphthalen-2-yl)-1,1-difluoro-3-oxopropan-2-yl)-4-(cyclohexylmethoxy) benzenesulfonamide trifluoroacetate] | 5.00 to 6.00
3 | COc1cc(C(F)(F)[C@@H](NS(=O)(=O)c2ccc3cc(OC4CCCC4)ccc3c2)C(=O)N2C3CCC2CC(N)C3)ccc1Br (stereo partly drawn) [Compound 89-2, N-((2S)-3-(3-amino-8-azabicyclo[3.2.1]octan-8-yl)-1-(4-bromo-3-methoxyphenyl)-1,1-difluoro-3-oxopropan-2-yl)-6-(cyclopentyloxy)naphthalene-2-sulfonamide] | 5.00 to 6.00
4 | CN([C@@H](C(=O)N1C2CCC1CC(N)C2)C(F)(F)c1ccc(OCCN2CCOCC2)cc1)S(=O)(=O)c1ccc2cc(OC3CCCC3)ccc2c1 (stereo partly drawn) [Compound 115-2, N-((2S)-3-(3-amino-8-azabicyclo[3.2.1]octan-8-yl)-1,1-difluoro-1-(4-(2-morpholinoethoxy)phenyl)-3-oxopropan-2-yl)-6-(cyclopentyloxy)-N-methylnaphthalene-2-sulfonamide] | 4.52 to 5.00
5 | NC1CC2CCC(C1)N2C(=O)[C@@H](NS(=O)(=O)c1ccc2cc(OC3CCCC3)ccc2c1)C(F)(F)c1ccc(Cl)cc1 (stereo partly drawn) [Compound 28-1, N-((2R)-3-(3-amino-8-azabicyclo[3.2.1]octan-8-yl)-1-(4-chlorophenyl)-1,1-difluoro-3-oxopropan-2-yl)-6-(cyclopentyloxy)naphthalene-2-sulfonamide trifluoroacetate] | > 6.00
6 | NC1CC2CCC(C1)N2C(=O)[C@@H](NS(=O)(=O)c1ccc2cc(OC3CCC3)ccc2c1)C(F)(F)c1ccc(Br)cc1 (stereo partly drawn) [Compound 47-1, N-((2R)-3-(3-amino-8-azabicyclo[3.2.1]octan-8-yl)-1-(4-bromophenyl)-1,1-difluoro-3-oxopropan-2-yl)-6-cyclobutoxynaphthalene-2-sulfonamide] | 5.00 to 6.00
7 | NC1CC2CCC(C1)N2C(=O)[C@@H](NS(=O)(=O)c1ccc2nn(CC3CCCC3)cc2c1)C(F)(F)c1ccc(Br)cc1 (stereo partly drawn) [Compound 77-1, N-((2R)-3-(3-amino-8-azabicyclo[3.2.1]octan-8-yl)-1-(4-bromophenyl)-1,1-difluoro-3-oxopropan-2-yl)-2-(cyclopentylmethyl)-2H-indazole-5-sulfonamide] | 5.00 to 6.00
8 | NC1CCN(C(=O)[C@@H](NS(=O)(=O)c2ccc3cc(OC4CCCC4)ccc3c2)C(F)(F)c2ccc(Cl)s2)CC1 [Compound 131-1, (R)—N-(3-(4-aminopiperidin-1-yl)-1-(5-chlorothiophen-2-yl)-1,1-difluoro-3-oxopropan-2-yl)-6-(cyclopentyloxy)naphthalene-2-sulfonamide] | 5.00 to 6.00
9 | NC1CC2CCC(C1)N2C(=O)[C@H](NS(=O)(=O)c1ccc2cc(OC3CCCC3)ccc2c1)C(F)(F)c1cccc(-c2ccccc2)c1 (stereo partly drawn) [Compound 66-2, N-((2S)-1-([1,1′-biphenyl]-3-yl)-3-(3-amino-8-azabicyclo[3.2.1]octan-8-yl)-1,1-difluoro-3-oxopropan-2-yl)-6-(cyclopentyloxy)naphthalene-2-sulfonamide] | 5.00 to 6.00
10 | NC1CCN(C(=O)[C@H](NS(=O)(=O)c2ccc3cc(OC4CCCC4)ccc3c2)C(F)(F)c2ccc(-c3ccccc3)cc2)CC1 [Compound 43-2, (S)—N-(1-([1,1′-biphenyl]-4-yl)-3-(4-aminopiperidin-1-yl)-1,1-difluoro-3-oxopropan-2-yl)-6-(cyclopentyloxy)naphthalene-2-sulfonamide] | 5.00 to 6.00
11 | CN([C@@H](C(=O)N1C2CCC1CC(N)C2)C(F)(F)c1ccc(O)cc1)S(=O)(=O)c1ccc2cc(OC3CCCC3)ccc2c1 (stereo partly drawn) [Compound 110-2, N-((2S)-3-(3-amino-8-azabicyclo[3.2.1]octan-8-yl)-1,1-difluoro-1-(4-hydroxyphenyl)-3-oxopropan-2-yl)-6-(cyclopentyloxy)-N-methylnaphthalene-2-sulfonamide trifluoroacetate] | 4.00 to 4.52
12 | NC1CC2CCC(C1)N2C(=O)[C@@H](NS(=O)(=O)c1ccc(OCC2CCCCC2)cc1)C(F)(F)c1ccc(C(F)(F)F)cc1 (stereo partly drawn) [Compound 59-1, N-((2R)-3-(3-amino-8-azabicyclo[3.2.1]octan-8-yl)-1,1-difluoro-3-oxo-1-(4-(trifluoromethyl)phenyl)propan-2-yl)-4-(cyclohexylmethoxy)benzenesulfonamide] | > 6.00
13 | NC1CCN(C(=O)[C@@H](NS(=O)(=O)c2ccc(OCC3CCCCC3)cc2)C(F)(F)c2ccc(-c3ccc(Cl)s3)cc2)CC1 [Compound 117-1, (R)—N-(3-(4-aminopiperidin-1-yl)-1-(4-(5-chlorothiophen-2-yl)phenyl)-1,1-difluoro-3-oxopropan-2-yl)-4-(cyclohexylmethoxy)benzenesulfonamide] | 5.00 to 6.00
14 | NC1CC2CCC(C1)N2C(=O)[C@@H](NS(=O)(=O)c1ccc2cc(OC3CCCC3)ccc2c1)C(F)(F)c1ccc(I)cc1 (stereo partly drawn) [Compound 42-1, N-((2R)-3-(3-amino-8-azabicyclo[3.2.1]octan-8-yl)-1,1-difluoro-1-(4-iodophenyl)-3-oxopropan-2-yl)-6-(cyclopentyloxy)naphthalene-2-sulfonamide trifluoroacetate] | > 6.00
15 | NC1CCN(C(=O)[C@H](NC(=O)C(=O)c2ccc(OCC3CCCCC3)cc2)C(F)(F)c2ccc(-c3ccc(Cl)cc3)cc2)CC1 [Compound 134-2, (S)—N-(3-(4-aminopiperidin-1-yl)-1-(4′-chloro-[1,1′-biphenyl]-4-yl)-1,1-difluoro-3-oxopropan-2-yl)-2-(4-(cyclohexylmethoxy)phenyl)-2-oxoacetamide trifluoroacetate] | 4.00 to 4.52
16 | O=C([C@@H](NS(=O)(=O)c1ccc2cc(OC3CCCC3)ccc2c1)C(F)(F)c1ccc(-c2ccc(Cl)cc2)cc1)N1CCNCC1 [Compound 137-1, (R)—N-(1-(4′-chloro-[1,1′-biphenyl]-4-yl)-1,1-difluoro-3-oxo-3-(piperazin-1-yl)propan-2-yl)-6-(cyclopentyloxy)naphthalene-2-sulfonamide trifluoroacetate] | 5.00 to 6.00
